From patent publication US6645983B1, “Pharmaceutical compositions comprising 4-quinolones for treating cancers” (Laboratoire L. Lafon, priority 1999, dated 2003)
Where two headings read alike, the source gives them in different places.

Tests used:
[1] = Determination of the maximum tolerated dose (MTD); settings: B6D2F1/Jico, mouse, in vivo, ip; single intraperitoneal administration, doses 2.5 to 160 mg/kg, survival over 14 days
Outline: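 Mice were 4- to 6-week-old B6D2F1/Jico. They received a single intraperitoneal dose of 2.5 to 160 mg/kg, and survival and body weight were followed for 14 days. MTD is given in mg/kg and is capped at 160 mg/kg by default.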

T24 = experiment: MTT test, cytotoxic activity on non-clonogenic cell lines; type: cell-based; settings: Homo sapiens, T-24, 10^−5 M, mean value
Outline: (§1)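 Human bladder cancer lines were seeded at 20 000–50 000 cells/ml and, after 24 h, exposed to compounds at 10^−5 to 10^−10 M against a solvent control. Formazan was dissolved in DMSO and viability was read by spectrophotometric optical density.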

J82 = experiment: as above; type: cell-based; settings: Homo sapiens, 10^−5 M, mean value
Outline: as §1

T-47D = experiment: as above; type: cell-based; settings: Homo sapiens, T47D, 10^−5 M, mean value
Outline: (§2)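 Human cancer lines seeded at 20 000–50 000 cells/ml, allowed 24 h to attach, then exposed to compounds at 10^−5 to 10^−10 M versus solvent control.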

U-87MG = experiment: as above; type: cell-based; settings: Homo sapiens, 10^−5 M, mean value
Outline: as §2

A549 = experiment: as above; type: cell-based; settings: Homo sapiens, 10^−5 M, mean value
Outline: as §2

PC-3 = experiment: as above; type: cell-based; settings: Homo sapiens, 10^−5 M, mean value
Outline: as §2

HCT-15 = experiment: as above; type: cell-based; settings: Homo sapiens, mean value
Outline: as §2

A-427 = experiment: as above; type: cell-based; settings: Homo sapiens, 10^−5 M, mean value
Outline: as §2

U-373MG = experiment: as above; type: cell-based; settings: Homo sapiens, U373 MG, 10^−5 M, mean value
Outline: as §2

MCF7 = experiment: as above; type: cell-based; settings: Homo sapiens, 10^−5 M, mean value
Outline: as §2

LoVo = experiment: as above; type: cell-based; settings: Homo sapiens, 10^−5 M, mean value
Outline: as §2

SW1088 = experiment: as above; type: cell-based; settings: Homo sapiens, 10^−5 M, mean value
Outline: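 Human astrocytoma SW1088 cells seeded, grown 24 h at 37° C, 5% CO2, then exposed to compounds at 10^−5 to 10^−10 M versus solvent control. Viability by MTT reduction: 3 h MTT incubation, formazan dissolved in DMSO and read by spectrophotometry.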

[2] = 72 hours of incubation, control condition = 100%, read-out: mean optical density as percentage of control, T24
[3] = 72 hours of incubation, control condition = 100%, read-out: mean optical density as percentage of control, J82
[4] = 72 hours of incubation, control condition = 100%, read-out: mean optical density as percentage of control, T-47D
[5] = U-87 MG, 72 hours of incubation, control condition = 100%, read-out: mean optical density as percentage of control, U-87MG
[6] = 72 hours of incubation, control condition = 100%, read-out: mean optical density as percentage of control, A549
[7] = 72 hours of incubation, control condition = 100%, read-out: mean optical density as percentage of control, PC-3
[8] = 10^−5 M, 72 hours of incubation, control condition = 100%, read-out: mean optical density as percentage of control, HCT-16
[9] = 72 hours of incubation, control condition = 100%, read-out: mean optical density as percentage of control, A-427
[10] = 72 hours of incubation, control condition = 100%, read-out: mean optical density as percentage of control, U-373MG
[11] = 72 hours of incubation, control condition = 100%, read-out: mean optical density as percentage of control, MCF7
[12] = 72 hours of incubation, control condition = 100%, read-out: mean optical density as percentage of control, LoVo
[13] = 72 hours of incubation, control condition = 100%, read-out: mean optical density as percentage of control, SW1088
[14] = 72 hours incubation, MTT, read-out: mean optical density, expressed as percentage relative to the mean optical density under the control condition (100%)

Row | SMILES | melting point | MTD at 14 day [1] | viability at 10 µM (T24; [2]) | viability at 10 µM (J82; [3]) | viability at 10 µM (T-47D; [4]) | viability at 10 µM (U-87MG; [5]) | viability at 10 µM (A549; [6]) | viability at 10 µM (PC-3; [7]) | viability at 10 µM (HCT-15; [8]) | viability at 10 µM (A-427; [9]) | viability at 10 µM (U-373MG; [10]) | viability at 10 µM (MCF7; [11]) | viability at 10 µM (LoVo; [12]) | viability at 10 µM (SW1088; [13]) | further results
1 | COc1ccc(-c2cnc3c(OC)ccc(OC)c3c2OCCCCC#N)cc1 [CRL8519, {[5,8-Dimethoxy-3-(4-methoxyphenyl)-4-quinolyl]oxy}pentanenitrile] | 126 to 127 °C |  |  |  |  |  |  |  |  |  |  |  |  |  | 
2 | C=Cc1cc(OC)cc2c1c(=O)c(-c1ccc(OC)cc1)cn2C [CRL8494, 7-Methoxy-3-(4-methoxyphenyl)-1-methyl-5-vinyl-1,4-dihydro-4-quinolinone] | 130 to 131 °C |  |  |  |  |  |  |  |  |  |  |  |  |  | 
3 | COc1ccc(-c2cn(CCc3nnn[nH]3)c3cc(OC)ccc3c2=O)cc1 [CRL8474, 7-Methoxy-3-(4-methoxyphenyl)-1-[2-(2H-1,2,3,4-tetrazol-5-yl)ethyl]-1,4-dihydro-4-quinolinone] | 245 to 246 °C |  |  |  |  |  |  |  |  |  |  |  |  |  | 
4 | COc1ccc(-c2cn(CC#N)c3cc(OC)ccc3c2=O)cc1 [CRL8522, [7-Methoxy-3-(4-methoxyphenyl)-4-oxo-1,4-dihydro-1-quinolinyl]acetonitrile] | 206 to 207 °C |  |  |  |  |  |  |  |  |  |  |  |  |  | 
5 | CC(=O)Oc1ccc(-c2cn(C)c3cc(OC(C)=O)cc(OC(C)=O)c3c2=O)cc1 [CRL8513, 5,7-Diacetoxy-3-[4-(acetoxy)phenyl]-1-methyl-1,4-dihydro-4-quinolmone] | 219 to 220 °C |  |  |  |  |  |  |  |  |  |  |  |  |  | 
6 | COc1cc(OC)c2c(=O)c(-c3ccccc3)cn(C)c2c1 [CRL8489, 5,7-Dimethoxy-3-phenyl-1-methyl-1,4-dihydro-4-quinolinone] | 179 to 180 °C |  |  |  |  |  |  |  |  |  |  |  |  |  | 
7 | O=c1c(-c2ccccc2)c[nH]c2ccccc12 [CRL8326, 3-Phenyl-1,4-dihydro-4-quinolinone] |  | > 160 mg/kg | 92.6% | 86.9% | 50.2% | 102% | 104% | 95.4% | 110% | 101% | 96.9% | 94.1% | 67.7% | 108% | 
8 | COc1ccc(-c2cn(CCN(C)C)c3c(OC)ccc(OC)c3c2=O)cc1 [CRL8382, N-[3-(Dimethylamino)ethyl]-5,8-dimethoxy-3-(4-methoxyphenyl)-1,4-dihydro-4-quinolinone] |  | > 160 mg/kg | 99.7% | 95.6% | 94.7% | 59.2% | 90.4% | 100% | 93.1% | 89.2% | 101% | 93% | 96.7% | 118% | 
9 | COc1ccc(-c2cn(C)c3cc(OC)cc(-c4ccccc4)c3c2=O)cc1 [CRL8394, 7-Methoxy-3-(4-methoxyphenyl)-1-methyl-5-phenyl-1,4-dihydro-4-quinolinone] |  | > 160 mg/kg | 92.9% | 93.5% | 94.3% | 42.2% | 52.9% | 83.2% | 37.7% | 38.9% | 73.5% | 78% | 45.1% | 68.5% | 
10 | COc1ccc(-c2cn(C)c3cc(OC)cc(N4CCN(C)CC4)c3c2=O)cc1 [CRL8436, 7-Methoxy-3-(4-methoxyphenyl)-1-methyl-5-(1-methyl-piperazino)-1,4-dihydro-4-quinolinone] |  | > 160 mg/kg |  |  |  |  |  |  |  |  |  |  |  |  | viability at 10 µM (T24; T24, 72 hours incubation, MTT, read-out: mean optical density, expressed as percentage relative to the mean optical density under the control condition (100%)): 99.2%; viability at 10 µM (J82; [14]): 101%; viability at 10 µM (T-47D; T-47D, 72 hours incubation, MTT, read-out: mean optical density, expressed as percentage relative to the mean optical density under the control condition (100%)): 89.4%; viability at 10 µM (U-87MG; U-87MG, 72 hours incubation, MTT, read-out: mean optical density, expressed as percentage relative to the mean optical density under the control condition (100%)): 97.3%; viability at 10 µM (A549; [14]): 101%; viability at 10 µM (PC-3; [14]): 99.9%; viability at 10 µM (HCT-15; HCT-16, 10^−5 M, 72 hours incubation, MTT, read-out: mean optical density, expressed as percentage relative to the mean optical density under the control condition (100%)): 101%; viability at 10 µM (A-427; [14]): 109%; viability at 10 µM (U-373MG; U-373MG, 72 hours incubation, MTT, read-out: mean optical density, expressed as percentage relative to the mean optical density under the control condition (100%)): 97.2%; viability at 10 µM (MCF7; [14]): 96.4%; viability at 10 µM (LoVo; [14]): 108%; viability at 10 µM (SW1088; [14]): 102%
11 | CCc1cc(OC)cc2c1c(=O)c(-c1ccc(OC)cc1)cn2C [CRL8393, 5-Ethyl-7-methoxy-3-(4-methoxyphenyl)-1-methyl-1,4-dihydro-4-quinolinone] |  | > 160 mg/kg | 95.3% | 97.9% | 68.8% | 89.9% | 93% | 87.3% | 41.8% | 23.7% | 74.7% | 89.7% | 84.6% | 82.8% | 
12 | COc1ccc(-c2c[nH]c3c(OC)ccc(O)c3c2=O)cc1 [CRL8391, 5-Hydroxy-8-methoxy-3-(4-methoxyphenyl)-1,4-dihydro-4-quinolinone] |  | > 160 mg/kg | 101% | 99.6% | 99.3% | 74% | 88.3% | 80% | 80.6% | 80.5% | 93.5% | 97.3% | 87.2% | 92.5% | 
13 | CCN(CC)C(=O)Cn1cc(-c2ccc(OC)cc2)c(=O)c2c(OC)ccc(OC)c21 [CRL8380, N,N-Diethyl-2-[5,8-dimethoxy-3-(4-methoxyphenyl)-4-oxo-1,4-dihydro-1-quinolinyl]acetamide] |  | > 160 mg/kg | 94.9% | 98.9% | 88.1% | 87.5% | 95% | 102% | 103% | 89.3% | 101% | 102% | 108% | 100% | 
